One data set addresses CB1 (Homo sapiens, UniProt P21554). Particulars: cited from earlier work.
The test system of data set [1] is cannabinoid receptors. Conditions: cited from earlier work.
The target in the next data set is CB2 (Homo sapiens, UniProt P34972). Particulars: cited from earlier work.
Data set [2] is described as follows: Solubilities of pigments in diluents, terpenes and cannabinoids. Conditions: in OBP (dipropylene glycol), nexus, terpenes, cannabinoids. The source says:
Solubilities of Pigments. The present disclosure encompasses solubility embodiments.

Data set [3] has as its system cannabinoid receptors. Particulars: cited from earlier work. The source holds these as a separate data set.

“Also recorded” adds a separate entry of the source.

Chain of CB2 (P34972 whole entry, species assumed): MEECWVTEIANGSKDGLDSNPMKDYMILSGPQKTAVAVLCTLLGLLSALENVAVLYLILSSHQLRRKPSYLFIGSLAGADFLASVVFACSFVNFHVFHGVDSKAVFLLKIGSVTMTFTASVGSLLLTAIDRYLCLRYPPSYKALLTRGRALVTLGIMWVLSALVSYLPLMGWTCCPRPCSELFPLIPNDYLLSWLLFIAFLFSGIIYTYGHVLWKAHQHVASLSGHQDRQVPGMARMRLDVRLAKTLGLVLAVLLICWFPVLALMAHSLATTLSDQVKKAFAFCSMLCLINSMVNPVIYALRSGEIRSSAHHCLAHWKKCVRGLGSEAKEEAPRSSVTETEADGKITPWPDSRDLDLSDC
Chain of CB1 (P21554 whole entry, species assumed): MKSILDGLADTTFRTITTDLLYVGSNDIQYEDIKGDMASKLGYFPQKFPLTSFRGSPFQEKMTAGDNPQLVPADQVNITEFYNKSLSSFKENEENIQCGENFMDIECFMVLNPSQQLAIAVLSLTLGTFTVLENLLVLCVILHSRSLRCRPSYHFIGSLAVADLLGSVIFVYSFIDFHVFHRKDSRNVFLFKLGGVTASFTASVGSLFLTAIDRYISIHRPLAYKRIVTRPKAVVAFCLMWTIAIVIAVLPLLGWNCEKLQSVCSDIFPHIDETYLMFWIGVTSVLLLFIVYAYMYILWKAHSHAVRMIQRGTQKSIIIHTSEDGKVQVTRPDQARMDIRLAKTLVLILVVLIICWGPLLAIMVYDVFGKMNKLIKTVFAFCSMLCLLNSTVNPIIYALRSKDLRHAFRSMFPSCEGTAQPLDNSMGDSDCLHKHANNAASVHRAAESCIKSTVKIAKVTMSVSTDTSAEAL

On to `CCCCC/C=C\C/C=C\CCCCCCCC(=O)OC(CO)CO` [2-linoleoyl-glycerol], for which the “binding to CB1” value at CB1 is listed as “do not bind”. The “potentiation of binding of 2-arachidonoyl-glycerol” value in the data set on cannabinoid receptors [1] is “potentiate the binding of 2-arachidonoyl-glycerol”. Further, the “binding to CB2” value at CB2 was “do not bind”.

Consider `CCCCCCCCCCCCCCCC(=O)OC(CO)CO` [2-palmitoyl-glycerol], for which, at CB1, the “binding to CB1” value is reported as “do not bind”. In the data set on cannabinoid receptors [1], the “potentiation of binding of 2-arachidonoyl-glycerol” value was “potentiate the binding of 2-arachidonoyl-glycerol”. The “binding to CB2” value at CB2 was “do not bind”.

For the molecule `CC1=C[C@H](O)CC(C)(C)[C@H]1/C=C/C(C)=C/C=C/C(C)=C/C=C/C=C(C)/C=C/C=C(C)/C=C/C1=C(C)C[C@@H](O)CC1(C)C` [Lutein], the solubility of pigment result in data set [2] is “soluble in both obp, nexus, terpenes, and cannabinoids”.

As to `CCCCCCCCCCCCCCCC(=O)NCCO` [palmitoylethanolamine], the “binding to CB1” value on CB1 is “do not bind”. The “binding to CB2” value at CB2 was “do not bind”. In addition, the “potentiation of activity of ligands of cannabinoid receptors” value with cannabinoid receptors [3] is recorded as “potentiate activity of ligands of cannabinoid receptors”.

As for `CCCCCCCCCCCCCCCCCC(=O)NCCO` [stearoylethanolamine], the “binding to CB1” value on CB1 is on record as “do not bind”. In addition, the “binding to CB2” value at CB2 is “do not bind”. In addition, the “potentiation of activity of ligands of cannabinoid receptors” value with cannabinoid receptors [3] is given as “potentiate activity of ligands of cannabinoid receptors”.

Anthocyanins: the solubility of pigment result in data set [2] is “only soluble in OBP (dipropylene glycol), not it nexus or cannabinoids alone; also recorded: only soluble in dipropylene glycol (i.e. OBP), not in nexus or cannabinoids alone”.

As for carotene, the solubility of pigment result in data set [2] was “soluble in both obp, nexus, terpenes, and cannabinoids”.

The record behind these values is patent US20180360100A1 (SCIENTIFIC HOLDINGS, LLC, priority 2017, published 2018).
